Results on 29 molecules are retold here after patent US9687479B2, “Multisubstituted aromatic compounds as serine protease inhibitors” (VERSEON CORPORATION, priority 2013, dated 2017).

Each structure is given as a SMILES string. Bounds are passed on as bounds.

In the assay the target is Human thrombin (Homo sapiens (Human), UniProt P00734). Description: Thrombin protease activity inhibition assay (chromogenic substrate S-2238). The conditions noted are these: 3 nM thrombin, 125 μM S-2238, 10 min pre-incubation, RT. It counts as biochemical. The procedure, abridged: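 Ten-point, three-fold serial dilutions of compound tested against 3 nM enzyme at RT in Tris buffer (0.05 M, pH 7.4) with 0.015 M NaCl and 0.01% PEG-8000.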
For `Cn1cccc(-c2cc(NCc3ccc(Cl)s3)n(C(=O)C3(C)COC3)n2)c1=O` [Cmpd 148, 3-(5-[(5-chlorothiophen-2-yl)methyl]amino-1-[(3-methyloxetan-3-yl)carbonyl]-1H-pyrazol-3-yl)-1-methyl-1,2-dihydropyridin-2-one], the IC50 (in general, the concentration at which inhibition is half-maximal) fell in the range of 100 to 1000 nM.

The molecule `CC1(C(=O)n2nc(-c3cccn(Cc4ccco4)c3=O)cc2NCc2ccc(Cl)s2)CCOCC1` [Cmpd 150, 3-(5-[(5-chlorothiophen-2-yl)methyl]amino-1-[(4-methyloxan-4-yl)carbonyl]-1H-pyrazol-3-yl)-1-(furan-2-ylmethyl)-1,2-dihydropyridin-2-one] showed an IC50 below 100 nM.

Molecule `CC1(C(=O)n2nc(-c3cccn(Cc4ccoc4)c3=O)cc2NCc2ccc(Cl)s2)CCOCC1` [Cmpd 151, 3-(5-[(5-chlorothiophen-2-yl)methyl]amino-1-[(4-methyloxan-4-yl)carbonyl]-1H-pyrazol-3-yl)-1-(furan-3-ylmethyl)-1,2-dihydropyridin-2-one] displayed an IC50 below 100 nM.

In turn, `CC1(C(=O)n2nc(-c3cccn(Cc4cccnn4)c3=O)cc2NCc2ccc(Cl)s2)CCOCC1` [Cmpd 152, 3-(5-[(5-chlorothiophen-2-yl)methyl]amino-1-[(4-methyloxan-4-yl)carbonyl]-1H-pyrazol-3-yl)-1-(pyridazin-3-ylmethyl)-1,2-dihydropyridin-2-one] gave an IC50 below 100 nM.

On to `CC1(C(=O)n2nc(-c3cccn(Cc4ccccn4)c3=O)cc2NCc2ccc(Cl)s2)CCOCC1` [Cmpd 153, 3-(5-[(5-chlorothiophen-2-yl)methyl]amino-1-[(4-methyloxan-4-yl)carbonyl]-1H-pyrazol-3-yl)-1-(pyridin-2-ylmethyl)-1,2-dihydropyridin-2-one], for which the IC50 was below 100 nM.

`CC1(C(=O)n2nc(-c3cccn(Cc4cccnc4)c3=O)cc2NCc2ccc(Cl)s2)CCOCC1` [Cmpd 154, 3-(5-[(5-chlorothiophen-2-yl)methyl]amino-1-[(4-methyloxan-4-yl)carbonyl]-1H-pyrazol-3-yl)-1-(pyridin-3-ylmethyl)-1,2-dihydropyridin-2-one] displayed an IC50 below 100 nM.

The molecule `CC1(C(=O)n2nc(-c3cccn(Cc4ccncc4)c3=O)cc2NCc2ccc(Cl)s2)CCOCC1` [Cmpd 155, 3-(5-[(5-chlorothiophen-2-yl)methyl]amino-1-[(4-methyloxan-4-yl)carbonyl]-1H-pyrazol-3-yl)-1-(pyridin-4-ylmethyl)-1,2-dihydropyridin-2-one] displayed an IC50 below 100 nM.

`CC1(C(=O)n2nc(-c3cccn(Cc4ncccn4)c3=O)cc2NCc2ccc(Cl)s2)CCOCC1` [Cmpd 156, 3-(5-[(5-chlorothiophen-2-yl)methyl]amino-1-[(4-methyloxan-4-yl)carbonyl]-1H-pyrazol-3-yl)-1-(pyrimidin-2-ylmethyl)-1,2-dihydropyridin-2-one]: the IC50 was below 100 nM.

On to `CC1(C(=O)n2nc(-c3cccn(Cc4ccsc4)c3=O)cc2NCc2ccc(Cl)s2)CCOCC1` [Cmpd 158, 3-(5-[(5-chlorothiophen-2-yl)methyl]amino-1-[(4-methyloxan-4-yl)carbonyl]-1H-pyrazol-3-yl)-1-(thiophen-3-ylmethyl)-1,2-dihydropyridin-2-one], for which the IC50 was below 100 nM.

`CC1(C(=O)n2nc(-c3cccn(CCN4CCOCC4)c3=O)cc2NCc2ccc(Cl)s2)CCOCC1` [Cmpd 159, 3-(5-[(5-chlorothiophen-2-yl)methyl]amino-1-[(4-methyloxan-4-yl)carbonyl]-1H-pyrazol-3-yl)-1-[2-(morpholin-4-yl)ethyl]-1,2-dihydropyridin-2-one] displayed an IC50 above 100000 nM.

For `O=C(c1ccco1)n1nc(-c2cccn(Cc3ccco3)c2=O)cc1NCc1ccc(Cl)s1` [Cmpd 161, 3-(5-[(5-chlorothiophen-2-yl)methyl]amino-1-[(furan-2-yl)carbonyl]-1H-pyrazol-3-yl)-1-(furan-2-ylmethyl)-1,2-dihydropyridin-2-one], the half-maximal inhibitory concentration (IC50) is below 100 nM.

As for `O=C(c1ccco1)n1nc(-c2cccn(Cc3ccoc3)c2=O)cc1NCc1ccc(Cl)s1` [Cmpd 162, 3-(5-[(5-chlorothiophen-2-yl)methyl]amino-1-[(furan-2-yl)carbonyl]-1H-pyrazol-3-yl)-1-(furan-3-ylmethyl)-1,2-dihydropyridin-2-one], the 50% inhibitory concentration (IC50) is below 100 nM.

Regarding `O=C(c1ccco1)n1nc(-c2cccn(Cc3cccnn3)c2=O)cc1NCc1ccc(Cl)s1` [Cmpd 163, 3-(5-[(5-chlorothiophen-2-yl)methyl]amino-1-[(furan-2-yl)carbonyl]-1H-pyrazol-3-yl)-1-(pyridazin-3-ylmethyl)-1,2-dihydropyridin-2-one], the IC50 was above 100000 nM.

On to `O=C(c1ccco1)n1nc(-c2cccn(Cc3ccccn3)c2=O)cc1NCc1ccc(Cl)s1` [Cmpd 164, 3-(5-[(5-chlorothiophen-2-yl)methyl]amino-1-[(furan-2-yl)carbonyl]-1H-pyrazol-3-yl)-1-(pyridin-2-ylmethyl)-1,2-dihydropyridin-2-one], for which the IC50 was below 100 nM.

Molecule `O=C(c1ccco1)n1nc(-c2cccn(Cc3cccnc3)c2=O)cc1NCc1ccc(Cl)s1` [Cmpd 165, 3-(5-[(5-chlorothiophen-2-yl)methyl]amino-1-[(furan-2-yl)carbonyl]-1H-pyrazol-3-yl)-1-(pyridin-3-ylmethyl)-1,2-dihydropyridin-2-one] registered an IC50 below 100 nM.

For the molecule `O=C(c1ccco1)n1nc(-c2cccn(Cc3ccncc3)c2=O)cc1NCc1ccc(Cl)s1` [Cmpd 166, 3-(5-[(5-chlorothiophen-2-yl)methyl]amino-1-[(furan-2-yl)carbonyl]-1H-pyrazol-3-yl)-1-(pyridin-4-ylmethyl)-1,2-dihydropyridin-2-one], the IC50 was below 100 nM.

For `O=C(c1ccco1)n1nc(-c2cccn(Cc3ncccn3)c2=O)cc1NCc1ccc(Cl)s1` [Cmpd 167, 3-(5-[(5-chlorothiophen-2-yl)methyl]amino-1-[(furan-2-yl)carbonyl]-1H-pyrazol-3-yl)-1-(pyrimidin-2-ylmethyl)-1,2-dihydropyridin-2-one], the IC50 was below 100 nM.

For `O=C(c1ccco1)n1nc(-c2cccn(Cc3cccs3)c2=O)cc1NCc1ccc(Cl)s1` [Cmpd 168, 3-(5-[(5-chlorothiophen-2-yl)methyl]amino-1-[(furan-2-yl)carbonyl]-1H-pyrazol-3-yl)-1-(thiophen-2-ylmethyl)-1,2-dihydropyridin-2-one], the IC50 was below 100 nM.

Molecule `O=C(c1ccco1)n1nc(-c2cccn(Cc3ccsc3)c2=O)cc1NCc1ccc(Cl)s1` [Cmpd 169, 3-(5-[(5-chlorothiophen-2-yl)methyl]amino-1-[(furan-2-yl)carbonyl]-1H-pyrazol-3-yl)-1-(thiophen-3-ylmethyl)-1,2-dihydropyridin-2-one] yielded an IC50 below 100 nM.

In turn, `O=C(c1ccco1)n1nc(-c2cccn(CCN3CCOCC3)c2=O)cc1NCc1ccc(Cl)s1` [Cmpd 170, 3-(5-[(5-chlorothiophen-2-yl)methyl]amino-1-[(furan-2-yl)carbonyl]-1H-pyrazol-3-yl)-1-[2-(morpholin-4-yl)ethyl]-1,2-dihydropyridin-2-one] showed an IC50 above 100000 nM.

`COCCn1cccc(-c2cc(NCc3ccc(Cl)s3)n(C(=O)c3ccoc3)n2)c1=O` [Cmpd 171, 3-(5-[(5-chlorothiophen-2-yl)methyl]amino-1-[(furan-3-yl)carbonyl]-1H-pyrazol-3-yl)-1-(2-methoxyethyl)-1,2-dihydropyridin-2-one] returned an IC50 above 100000 nM.

Consider `O=C(c1ccoc1)n1nc(-c2cccn(CCc3ccccc3)c2=O)cc1NCc1ccc(Cl)s1` [Cmpd 172, 3-(5-[(5-chlorothiophen-2-yl)methyl]amino-1-[(furan-3-yl)carbonyl]-1H-pyrazol-3-yl)-1-(2-phenylethyl)-1,2-dihydropyridin-2-one], for which the IC50 was below 100 nM.

As to `O=C(c1ccoc1)n1nc(-c2cccn(Cc3ccoc3)c2=O)cc1NCc1ccc(Cl)s1` [Cmpd 173, 3-(5-[(5-chlorothiophen-2-yl)methyl]amino-1-[(furan-3-yl)carbonyl]-1H-pyrazol-3-yl)-1-(furan-3-ylmethyl)-1,2-dihydropyridin-2-one], the IC50 is below 100 nM.

The molecule `O=C(c1ccoc1)n1nc(-c2cccn(Cc3cccc4ccccc34)c2=O)cc1NCc1ccc(Cl)s1` [Cmpd 174, 3-(5-[(5-chlorothiophen-2-yl)methyl]amino-1-[(furan-3-yl)carbonyl]-1H-pyrazol-3-yl)-1-(naphthalen-1-ylmethyl)-1,2-dihydropyridin-2-one] came in with an IC50 below 100 nM.

Molecule `O=C(c1ccoc1)n1nc(-c2cccn(Cc3ccc4ccccc4c3)c2=O)cc1NCc1ccc(Cl)s1` [Cmpd 175, 3-(5-[(5-chlorothiophen-2-yl)methyl]amino-1-[(furan-3-yl)carbonyl]-1H-pyrazol-3-yl)-1-(naphthalen-2-ylmethyl)-1,2-dihydropyridin-2-one] displayed an IC50 below 100 nM.

Turning to `O=C(c1ccoc1)n1nc(-c2cccn(Cc3cccnn3)c2=O)cc1NCc1ccc(Cl)s1` [Cmpd 176, 3-(5-[(5-chlorothiophen-2-yl)methyl]amino-1-[(furan-3-yl)carbonyl]-1H-pyrazol-3-yl)-1-(pyridazin-3-ylmethyl)-1,2-dihydropyridin-2-one], the IC50 was below 100 nM.

Consider `O=C(c1ccoc1)n1nc(-c2cccn(Cc3cccnc3)c2=O)cc1NCc1ccc(Cl)s1` [Cmpd 177, 3-(5-[(5-chlorothiophen-2-yl)methyl]amino-1-[(furan-3-yl)carbonyl]-1H-pyrazol-3-yl)-1-(pyridin-3-ylmethyl)-1,2-dihydropyridin-2-one], for which the IC50 is below 100 nM.

`O=C(c1ccoc1)n1nc(-c2cccn(Cc3ncccn3)c2=O)cc1NCc1ccc(Cl)s1` [Cmpd 178, 3-(5-[(5-chlorothiophen-2-yl)methyl]amino-1-[(furan-3-yl)carbonyl]-1H-pyrazol-3-yl)-1-(pyrimidin-2-ylmethyl)-1,2-dihydropyridin-2-one]: the IC50 is below 100 nM.

Molecule `O=C(Cn1cccc(-c2cc(NCc3ccc(Cl)s3)n(C(=O)c3ccoc3)n2)c1=O)N1CCOCC1` [Cmpd 180, 3-(5-[(5-chlorothiophen-2-yl)methyl]amino-1-[(furan-3-yl)carbonyl]-1H-pyrazol-3-yl)-1-[2-(morpholin-4-yl)-2-oxoethyl]-1,2-dihydropyridin-2-one] displayed an IC50 below 100 nM.
